The source of these data is US9890146B2, “Compound having selective EP2 agonist activity” (ONO PHARMACEUTICAL CO., LTD., priority 2014, dated 2018).

This assay deals with T1, human EP2 (Homo sapiens, UniProt P43116).
T1 construct: expressed in transfected cells; host or cells: CHO cells (EP2-CHO)
T1 sequence (P43116 whole entry): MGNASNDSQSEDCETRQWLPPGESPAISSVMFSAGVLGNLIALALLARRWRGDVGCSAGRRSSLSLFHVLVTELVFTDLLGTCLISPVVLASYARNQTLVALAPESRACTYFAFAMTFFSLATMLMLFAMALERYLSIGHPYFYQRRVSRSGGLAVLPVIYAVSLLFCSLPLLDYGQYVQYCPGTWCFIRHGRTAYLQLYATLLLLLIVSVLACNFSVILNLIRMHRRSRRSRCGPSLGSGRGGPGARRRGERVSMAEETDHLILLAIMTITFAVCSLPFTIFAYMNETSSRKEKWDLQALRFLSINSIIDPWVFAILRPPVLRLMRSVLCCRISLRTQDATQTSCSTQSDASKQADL
In words: Measurement of EP2 agonist activity (measurement of cAMP concentration). The class given is cell-based. To be noted: EP2-CHO cells, cAMP production (HTRF), reaction 30 minutes at room temperature; read-out: EP2 agonist activity EC50. The method, then:
Using Chem1 cells or CHO cells in which various prostanoid receptors were forcibly expressed, respectively, agonist activities of test compounds on various prostanoid receptors was determined employing, as a measure, an intracellular cyclic AMP (hereinbelow, abbreviated as “cAMP”) production amount or an intracellular calcium concentration.
The test compound and a control substance (PGE2 and PGF2α) were dissolved in dimethyl sulfoxide (DMSO) to prepare a 10 mmol/L solution. The 10 mmol/L solution thus prepared was thawed upon use, then serially diluted with DMSO, and then diluted with a buffer solution for measurement use or a buffer solution for measurement use 2, and then the resulting solution was subjected to an experiment.
Cells forcibly expressing various prostanoid receptors were standing-cultured at 37° C. in the presence of 5% CO2 using a DMEM medium (Sigma) (for culturing FP-Chem1) containing inactivated (56° C., 30 minutes) 9.8 vol % nondialysed-FBS (Life Technologies), 1 vol % Non Essential Amino Acids (Life Technologies), 10 mmol/L HEPES Buffer Solution (Life Technologies), 0.5 vol % GENETICIN (Life Technologies) and 1% penicillin-streptomycin (Life Technologies) or an α-MEM medium (Sigma) (for culturing EP2-CHO) containing inactivated (56° C., 30 minutes) 9.8 vol % dialysed-FBS (Life Technologies) and penicillin-streptomycin-glutamine (Life Technologies). Subculturing was carried out by the following manner.
The medium was removed, and washed with a phosphate-buffered physiological saline not containing Ca^2+ and Mg^2+ one time. A proper amount of trypsin-EDTA (Life Technologies) was added, and this was incubated at room temperature, cells were peeled, and a medium having a volume which is 10-fold a volume of trypsin-EDTA was added to stop an enzymatic reaction. After cells were recovered into a centrifuging tube, and centrifuged at room temperature for 3 minutes at 120 g, the supernatant was removed. Cells were suspended in a proper amount of a medium, and seeded in a culturing flask.
On the measurement day, a medium was removed, and EP2-CHO was washed with a phosphate-buffered physiological saline containing 2 mmol/L EDTA and not containing Ca^2+ and Mg^2+ one time. A proper amount of the phosphate-buffered physiological saline containing 2 mmol/L EDTA and not containing Ca^2+ and Mg^2+ was added, this was incubated at 37° C. in the presence of 5% CO2, cells were peeled, cells were recovered into a centrifuging tube, and centrifuged at room temperature for 3 minutes at 550 g, and the supernatant was removed. Cells were suspended in a proper amount of a buffer solution for measurement 1 (MEM medium (Invitrogen) containing 1.0 w/v % bovine serum albumin (Sigma) and 2 μmol/L diclofenac (Sigma)), and centrifuged at room temperature for 3 minutes at 200 g, and the supernatant was removed. Cells were suspended in a buffer solution for measurement 2 (MEM medium (Invitrogen) containing 1.0 w/v % bovine serum albumin (Sigma), 2 μmol/L diclofenac (Sigma) and 1 mmol/L 3-isobutyl-1-methylxanthine), and each 25 μL of the suspension was dispensed into a 96-well ½ area plate so that the cell number per well became […]. A buffer solution for measurement 2 (25 μL) containing an agonist at a variety of concentrations was added to carry out a reaction at room temperature for 30 minutes. Measurement of a cAMP concentration was carried out using the cAMP HTRF HiRange kit (CIS bio International). According to the two step protocol of the kit manual, each 25 μL of cAMP-D2 and Cryptase diluted with a lysis buffer were added, and this was incubated at room temperature for 1 hour. After incubation for 1 hour, time resolution fluorescence at 620 nm and 660 nm when excited at 340 nm was measured using SpectraMax M5e (Molecular Device), and a ratio (TRF ratio) was obtained, thereby, a cAMP concentration was calculated from a calibration line. […]
In general terms: Changes in cAMP serve as a functional read-out for many G protein-coupled receptors.
The EC50 is the concentration giving half of the maximal effect. `Cc1cc(OC[C@@H]2[C@H]3CC[C@H](c4nc(C(=O)O)cs4)O[C@H]3C[C@H]2O)ccc1[N+](=O)[O-]` [1(4), 2-{(2R,4aR,5S,6R,7aS)-6-hydroxy-5-[(3-methyl-4-nitrophenoxy)methyl]octahydrocyclopenta[b]pyran-2-yl}-1,3-thiazole-4-carboxylic acid]: the concentration for a half-maximal effect (EC50) came to 0.5 nM.

In the case of `Cc1cc(OC[C@@H]2[C@H]3CC[C@H](c4nc(C(=O)O)cs4)O[C@H]3C[C@H]2O)ccc1Cl` [1(5), 2-{(2R,4aR,5S,6R,7aS)-5-[(4-chloro-3-methylphenoxy)methyl]-6-hydroxyoctahydrocyclopenta[b]pyran-2-yl}-1,3-thiazole-4-carboxylic acid], the EC50 amounted to 0.9 nM.

In the case of `O=C(O)c1csc([C@H]2CC[C@@H]3[C@@H](COc4ccc5c(c4)CCC5)[C@H](O)C[C@@H]3O2)n1` [1(6), 2-{(2R,4aR,5S,6R,7aS)-5-[(2,3-dihydro-1H-inden-5-yloxy)methyl]-6-hydroxyoctahydrocyclopenta[b]pyran-2-yl}-1,3-thiazole-4-carboxylic acid], the EC50 stood at 7.5 nM.

With `Cc1ccc(OC[C@@H]2[C@H]3CC[C@H](c4nc(C(=O)O)cs4)O[C@H]3C[C@H]2O)cc1C` [1(7), 2-{(2R,4aR,5S,6R,7aS)-5-[(3,4-dimethylphenoxy)methyl]-6-hydroxyoctahydrocyclopenta[b]pyran-2-yl}-1,3-thiazole-4-carboxylic acid], the EC50 was determined as 3.3 nM.

Regarding `O=C(O)c1csc([C@H]2CC[C@@H]3[C@@H](COc4ccc5[nH]ccc5c4)[C@H](O)C[C@@H]3O2)n1` [1(12), 2-{(2R,4aR,5S,6R,7aS)-6-hydroxy-5-[(1H-indol-5-yloxy)methyl]octahydrocyclopenta[b]pyran-2-yl}-1,3-thiazole-4-carboxylic acid], the EC50 was 19 nM.

As to `O=C(O)c1csc([C@H]2CC[C@@H]3[C@@H](COc4cccc5c4CCC5)[C@H](O)C[C@@H]3O2)n1` [1(13), 2-{(2R,4aR,5S,6R,7aS)-5-[(2,3-dihydro-1H-inden-4-yloxy)methyl]-6-hydroxyoctahydrocyclopenta[b]pyran-2-yl}-1,3-thiazole-4-carboxylic acid], the 50% effective concentration (EC50) was found to be 1.1 nM.

Consider `O=C(O)c1csc([C@H]2CC[C@@H]3[C@@H](COc4ccc5c(c4)CC5)[C@H](O)C[C@@H]3O2)n1` [1(15), 2-{(2R,4aR,5S,6R,7aS)-5-[(bicyclo[4.2.0]octa-1,3,5-trien-3-yloxy)methyl]-6-hydroxyoctahydrocyclopenta[b]pyran-2-yl}-1,3-thiazole-4-carboxylic acid], for which the EC50 came out at 14 nM.

Take `O=C(O)c1csc([C@H]2CC[C@@H]3[C@@H](COc4ccc5ccoc5c4)[C@H](O)C[C@@H]3O2)n1` [1(16), 2-{(2R,4aR,5S,6R,7aS)-5-[(1-benzofuran-6-yloxy)methyl]-6-hydroxyoctahydrocyclopenta[b]pyran-2-yl}-1,3-thiazole-4-carboxylic acid]: the EC50 was 5.5 nM.

In the case of `CCc1cc(OC[C@@H]2[C@H]3CC[C@H](c4nc(C(=O)O)cs4)O[C@H]3C[C@H]2O)ccc1C` [1(17), 2-{(2R,4aR,5S,6R,7aS)-5-[(3-ethyl-4-methylphenoxy)methyl]-6-hydroxyoctahydrocyclopenta[b]pyran-2-yl}-1,3-thiazole-4-carboxylic acid], the half-maximal effective concentration (EC50) stood at 0.82 nM.

For `O=C(O)c1csc([C@H]2CC[C@@H]3[C@@H](COc4ccc5c(c4F)CCC5)[C@H](O)C[C@@H]3O2)n1` [1(19), 2-[(2R,4aR,5S,6R,7aS)-5-{[(4-fluoro-2,3-dihydro-1H-inden-5-yl)oxy]methyl}-6-hydroxyoctahydrocyclopenta[b]pyran-2-yl]-1,3-thiazole-4-carboxylic acid], the half-maximal effective concentration (EC50) turned out to be 2.4 nM.

For `O=C(O)c1csc([C@H]2CC[C@@H]3[C@@H](COc4ccc(Cl)c(C5CC5)c4)[C@H](O)C[C@@H]3O2)n1` [1(22), 2-{(2R,4aR,5S,6R,7aS)-5-[(4-chloro-3-cyclopropylphenoxy)methyl]-6-hydroxyoctahydrocyclopenta[b]pyran-2-yl}-1,3-thiazole-4-carboxylic acid], the EC50 turned out to be 2.3 nM.

Regarding `O=C(O)c1csc([C@H]2CC[C@@H]3[C@@H](COc4ccccc4)[C@H](O)C[C@@H]3O2)n1` [1(27), 2-[(2R,4aR,5S,6R,7aS)-6-hydroxy-5-(phenoxymethyl)octahydrocyclopenta[b]pyran-2-yl]-1,3-thiazole-4-carboxylic acid], the half-maximal effective concentration (EC50) turned out to be 12 nM.

Consider `O=C(O)c1csc([C@H]2CC[C@@H]3[C@@H](COc4ccc5c(c4)CCC5)[C@@H](O)C[C@@H]3O2)n1` [9(1), 2-{(2R,4aR,5S,6S,7aS)-5-[(2,3-dihydro-1H-inden-5-yloxy)methyl]-6-hydroxyoctahydrocyclopenta[b]pyran-2-yl}-1,3-thiazole-4-carboxylic acid], for which the EC50 came out at 0.86 nM.

`Cc1ccc(OC[C@@H]2[C@H]3CC[C@H](c4nc(C(=O)O)cs4)O[C@H]3C[C@@H]2O)cc1Cl` [9(3), 2-{(2R,4aR,5S,6S,7aS)-5-[(3-chloro-4-methylphenoxy)methyl]-6-hydroxyoctahydrocyclopenta[b]pyran-2-yl}-1,3-thiazole-4-carboxylic acid]: the EC50 stood at 0.16 nM.

In the case of `CCc1cc(OC[C@@H]2[C@H]3CC[C@H](c4nc(C(=O)O)cs4)O[C@H]3C[C@@H]2O)ccc1C` [9(4), 2-{(2R,4aR,5S,6S,7aS)-5-[(3-ethyl-4-methylphenoxy)methyl]-6-hydroxyoctahydrocyclopenta[b]pyran-2-yl}-1,3-thiazole-4-carboxylic acid], the concentration for a half-maximal effect (EC50) turned out to be 0.33 nM.

Regarding `O=C(O)c1csc([C@H]2CC[C@@H]3[C@@H](COc4ccc5c(c4F)CCC5)[C@@H](O)C[C@@H]3O2)n1` [9(5), 2-[(2R,4aR,5S,6S,7aS)-5-{[(4-fluoro-2,3-dihydro-1H-inden-5-yl)oxy]methyl}-6-hydroxyoctahydrocyclopenta[b]pyran-2-yl]-1,3-thiazole-4-carboxylic acid], the EC50 worked out at 0.91 nM.

Take `O=C(O)c1csc([C@H]2CC[C@@H]3[C@@H](COc4ccc5c(c4)CCCC5)[C@@H](O)C[C@@H]3O2)n1` [9(12), 2-{(2R,4aR,5S,6S,7aS)-6-hydroxy-5-[(5,6,7,8-tetrahydro-2-naphthalenyloxy)methyl]octahydrocyclopenta[b]pyran-2-yl}-1,3-thiazole-4-carboxylic acid]: the EC50 was determined as 6.4 nM.

With `CCc1ccc(OC[C@@H]2[C@H]3CC[C@H](c4nc(C(=O)O)cs4)O[C@H]3C[C@@H]2O)cc1CC` [9(23), 2-{(2R,4aR,5S,6S,7aS)-5-[(3,4-diethylphenoxy)methyl]-6-hydroxyoctahydrocyclopenta[b]pyran-2-yl}-1,3-thiazole-4-carboxylic acid], the EC50 was 1.6 nM.

For `CSc1cc(OC[C@@H]2[C@H]3CC[C@H](c4nc(C(=O)O)cs4)O[C@H]3C[C@@H]2O)ccc1C` [9(25)], the EC50 is 0.074 nM.

As to `O=C(O)c1csc([C@H]2CC[C@@H]3[C@@H](COc4ccc5c(c4)CCCCC5)[C@@H](O)C[C@@H]3O2)n1` [9(33)], the concentration for a half-maximal effect (EC50) is 1.6 nM.

In the case of `CCc1ccc(OC[C@@H]2[C@H]3CC[C@H](c4nc(C(=O)O)cs4)O[C@H]3C[C@@H]2O)cc1C1CC1` [9(35), 2-{(2R,4aR,5S,6S,7aS)-5-[(3-cyclopropyl-4-ethylphenoxy)methyl]-6-hydroxyoctahydrocyclopenta[b]pyran-2-yl}-1,3-thiazole-4-carboxylic acid], the half-maximal effective concentration (EC50) stood at 2.4 nM.

Consider `CCc1ccc(OC[C@@H]2[C@H]3CC[C@H](c4nc(C(=O)O)cs4)O[C@H]3C[C@@H]2O)cc1C1CCC1` [9(36), 2-{(2R,4aR,5S,6S,7aS)-5-[(3-cyclobutyl-4-ethylphenoxy)methyl]-6-hydroxyoctahydrocyclopenta[b]pyran-2-yl}-1,3-thiazole-4-carboxylic acid], for which the EC50 was 3.5 nM.
